# “And” between values parts separate entries of the source, which are not always exact repeats. Equal values may be shown once.
# System: 628569-122-R-J1-PDC complex spheroid viability
# Assay: Anticancer human tumor 628569-122-R-J1-PDC patient-derived head and neck squamous carcinoma cell line growth inhibition [CLK]
# Conditions: for viability, T/C: stronger effect = lower value
# Outline: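 Multi-cell-type spheroids combined patient-derived tumor cells with HUVEC endothelial cells and human mesenchymal stem cells. Paired agents were dosed in half-log steps down from about clinical Cmax, or from 10 microM where Cmax was unknown.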
# [1] = curve of first compound, second compound 0.0316 µM
# [2] = curve of first compound, second compound 0.1 µM
# [3] = curve of first compound, second compound 0.316 µM
# [4] = curve of first compound, second compound 1 µM
# [5] = curve of first compound, second compound 3.16 µM
# [6] = curve of first compound, second compound 10 µM
# [7] = second compound 0.0316 µM, first compound 0.0316 µM
# [8] = second compound 0.0316 µM, first compound 0.1 µM
# [9] = second compound 0.0316 µM, first compound 0.316 µM
# [10] = second compound 0.0316 µM, first compound 1 µM
# [11] = second compound 0.0316 µM, first compound 3.16 µM
# [12] = second compound 0.0316 µM, first compound 10 µM
# [13] = second compound 0.1 µM, first compound 0.0316 µM
# [14] = second compound 0.1 µM, first compound 0.1 µM
# [15] = second compound 0.1 µM, first compound 0.316 µM
# [16] = second compound 0.1 µM, first compound 1 µM
# [17] = second compound 0.1 µM, first compound 3.16 µM
# [18] = second compound 0.1 µM, first compound 10 µM
# [19] = second compound 0.316 µM, first compound 0.0316 µM
# [20] = second compound 0.316 µM, first compound 0.1 µM
# [21] = second compound 0.316 µM, first compound 0.316 µM
# [22] = second compound 0.316 µM, first compound 1 µM
# [23] = second compound 0.316 µM, first compound 3.16 µM
# [24] = second compound 0.316 µM, first compound 10 µM
# [25] = second compound 1 µM, first compound 0.0316 µM
# [26] = second compound 1 µM, first compound 0.1 µM
# [27] = second compound 1 µM, first compound 0.316 µM
# [28] = second compound 1 µM, first compound 1 µM
# [29] = second compound 1 µM, first compound 3.16 µM
# [30] = second compound 1 µM, first compound 10 µM
# [31] = second compound 3.16 µM, first compound 0.0316 µM
# [32] = second compound 3.16 µM, first compound 0.1 µM
# [33] = second compound 3.16 µM, first compound 0.316 µM
# [34] = second compound 3.16 µM, first compound 1 µM
# [35] = second compound 3.16 µM, first compound 3.16 µM
# [36] = second compound 3.16 µM, first compound 10 µM
# [37] = second compound 10 µM, first compound 0.0316 µM
# [38] = second compound 10 µM, first compound 0.1 µM
# [39] = second compound 10 µM, first compound 0.316 µM
# [40] = second compound 10 µM, first compound 1 µM
# [41] = second compound 10 µM, first compound 3.16 µM
# [42] = second compound 10 µM, first compound 10 µM
# 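Note: spheroids exposed to agents for seven days before readout.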
# 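Throughout, for viability, T/C: 100% = DMSO vehicle control viability.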
smiles,measurement,setting,value
CC1COCCN1c1cc(C2(S(C)(=N)=O)CC2)nc(-c2ccnc3[nH]ccc23)n1 (stereo not given) + CNC(=O)c1ccc(Nc2nc(OC3CCCC3)c3c(-c4ccc5nc(C)oc5c4)c[nH]c3n2)c(OC)c1,IC50,[1],930 nM
same,IC50,[2],2970 nM
same,IC50,[3],1380 nM
same,IC50,[4],< 31.6 nM
same,IC50,[5],< 31.6 nM
same,IC50,[6],< 31.6 nM
same,"viability, T/C",[7],103%
same,"viability, T/C",[8],100%
same,"viability, T/C",[9],67.5%
same,"viability, T/C",[10],51.4%
same,"viability, T/C",[11],45%
same,"viability, T/C",[12],35.3%
same,"viability, T/C",[13],66.2%
same,"viability, T/C",[14],58.3%
same,"viability, T/C",[15],56.1%
same,"viability, T/C",[16],54.5%
same,"viability, T/C",[17],54%
same,"viability, T/C",[18],40%
same,"viability, T/C",[19],45%
same,"viability, T/C",[20],64.8%
same,"viability, T/C",[21],50.9%
same,"viability, T/C",[22],52.3%
same,"viability, T/C",[23],44.7%
same,"viability, T/C",[24],35.6%
same,"viability, T/C",[25],45.1%
same,"viability, T/C",[26],46.2%
same,"viability, T/C",[27],40.4%
same,"viability, T/C",[28],38.3%
same,"viability, T/C",[29],41.8%
same,"viability, T/C",[30],33.8%
same,"viability, T/C",[31],44.1%
same,"viability, T/C",[32],55.3%
same,"viability, T/C",[33],47.2%
same,"viability, T/C",[34],37.7%
same,"viability, T/C",[35],36.7%
same,"viability, T/C",[36],32%
same,"viability, T/C",[37],44.2%
same,"viability, T/C",[38],43.7%
same,"viability, T/C",[39],39.7%
same,"viability, T/C",[40],40.4%
same,"viability, T/C",[41],39%
same,"viability, T/C",[42],29.4%
CCN1CCN(Cc2ccc(Nc3ncc(F)c(-c4cc(F)c5nc(C)n(C(C)C)c5c4)n3)nc2)CC1,"viability, T/C",compound 0.00316 µM,86.6% and 89.6%
same,"viability, T/C",compound 0.01 µM,81.3% and 70%
same,"viability, T/C",compound 0.0316 µM,73.7% and 72.2%
same,"viability, T/C",compound 0.1 µM,70.1% and 68.2%
same,"viability, T/C",compound 0.316 µM,105% and 79.5%
same,"viability, T/C",compound 1 µM,182% and 142%
same,IC50,curve of compound,> 1000 nM
C=C(F)C(=O)N1CCN(c2nc(OCC3CCCN3C)nc3c2CCN(c2cccc4cccc(Cl)c24)C3)CC1CC#N (stereo not given),"viability, T/C",compound 0.0316 µM,79.5% and 98.1%
same,"viability, T/C",compound 0.1 µM,108% and 77.6%
same,"viability, T/C",compound 0.316 µM,85.4% and 79.5%
same,"viability, T/C",compound 1 µM,93.6% and 82.5%
same,"viability, T/C",compound 3.16 µM,116% and 123%
same,"viability, T/C",compound 10 µM,12.6% and 30.3%
same,IC50,curve of compound,5990 nM and 6930 nM
Nc1ccccc1NC(=O)c1ccc(CNC(=O)OCc2cccnc2)cc1 + CNC(=O)c1ccc(Nc2nc(OC3CCCC3)c3c(-c4ccc5nc(C)oc5c4)c[nH]c3n2)c(OC)c1,IC50,[1],9140 nM
same,IC50,[2],> 10000 nM
same,IC50,[3],> 10000 nM
same,IC50,[4],184 nM
same,IC50,[5],3310 nM
same,IC50,[6],31.6 nM
same,"viability, T/C",[7],97.7%
same,"viability, T/C",[8],114%
same,"viability, T/C",[9],125%
same,"viability, T/C",[10],138%
same,"viability, T/C",[11],101%
same,"viability, T/C",[12],45.6%
same,"viability, T/C",[13],59.1%
same,"viability, T/C",[14],55%
same,"viability, T/C",[15],61.9%
same,"viability, T/C",[16],83.7%
same,"viability, T/C",[17],102%
same,"viability, T/C",[18],32.3%
same,"viability, T/C",[19],50.8%
same,"viability, T/C",[20],51%
same,"viability, T/C",[21],49%
same,"viability, T/C",[22],73.3%
same,"viability, T/C",[23],94.1%
same,"viability, T/C",[24],22.5%
same,"viability, T/C",[25],42.9%
same,"viability, T/C",[26],48.7%
same,"viability, T/C",[27],47.4%
same,"viability, T/C",[28],60.4%
same,"viability, T/C",[29],81.8%
same,"viability, T/C",[30],12.5%
same,"viability, T/C",[31],44.6%
same,"viability, T/C",[32],45.5%
same,"viability, T/C",[33],45.8%
same,"viability, T/C",[34],56.5%
same,"viability, T/C",[35],67.3%
same,"viability, T/C",[36],7.27%
same,"viability, T/C",[37],48.6%
same,"viability, T/C",[38],41.5%
same,"viability, T/C",[39],44.2%
same,"viability, T/C",[40],54.3%
same,"viability, T/C",[41],57.6%
same,"viability, T/C",[42],4.45%
CC(Nc1ccc2c(c1)OCCn1cc(N3C(=O)OCC3C(F)F)nc1-2)C(N)=O (stereo not given),"viability, T/C",compound 0.0316 µM,66.2% and 56.2%
same,"viability, T/C",compound 0.1 µM,68.1% and 60.1%
same,"viability, T/C",compound 0.316 µM,39.3% and 46.8%
same,"viability, T/C",compound 1 µM,40.2% and 37.5%
same,"viability, T/C",compound 3.16 µM,32% and 39.5%
same,"viability, T/C",compound 10 µM,18.5% and 29.7%
same,IC50,curve of compound,279 nM and 217 nM

# — PubChem BioAssay AID2060611 (Molecular Pharmacology Branch, DTP, NCI, 2025)
